Reference: US7754686B2, “Stabilized FGF formulations containing reducing agents” (Novartis Vaccines and Diagnostics, Inc., priority 2000, dated 2010)

Experiments:
[1] = Storage stability of liquid FGF-2 formulations by RP-HPLC (% main peak); format: physicochemical; settings: 0-10 mM DTT, FIGS. 1-3
Protocol: Reversed Phase HPLC (RP-HPLC) was performed using a Waters 600S controller and a Waters 717 autosampler. Separations were accomplished on a Zorbax 300SB-CN, 4.6 mm ID×15 cm, 5:, cyano column with sample detection at 214 nm on a Waters 486 UV detector. Samples were run at 1.0 mL/min and injection volumes were 50 μL (˜15 μg of protein per injection). […] Much of FGF-2 instability in pharmaceutical formulations can be attributed to oxidation. The stability of FGF-2 in different formulations can be quantitated by measuring the retention of the main peak using RP-HPLC. This main peak corresponds to the FGF-2 that remains in the reduced form. Using the analytical procedures described herein, the storage stability of FGF-2 under several conditions was followed by monitoring changes in the RP-HPLC main peak as a function of storage time at 4° C., 17° C., and 30° C. Experiments were conducted to determine the appropriate levels of dithiothreitol (DTT) required for maximum stability of FGF-2 formulations. Concentrations of DTT from 0 to 10 mM were examined in formulations between pH 5.5 and pH 6.5. In this example, all formulations were liquids and were produced from the same lot of bulk drug. Formulations were stored at 4° C., 17° C., and 30° C. […] Stability of the formulations was assessed by a number of assays. […]

[2] = Storage stability of lyophilized FGF-2 formulations by RP-HPLC (% main peak); format: physicochemical; settings: 0.35 and 3.5 mg/ml, 10 mM DTT, pH 6.0, storage at 30° C. for 1 year, FIG. 7
Protocol: Reversed Phase HPLC (RP-HPLC) was performed using a Waters 600S controller and a Waters 717 autosampler. Separations were accomplished on a Zorbax 300SB-CN, 4.6 mm ID×15 cm, 5:, cyano column with sample detection at 214 nm on a Waters 486 UV detector. Samples were run at 1.0 mL/min and injection volumes were 50 μL (˜15 μg of protein per injection).
rhFGF-2 was lyophilized using the following cycle: Vials were placed on pre-cool shelves set at 10° C. The shelf temperature was ramped at 40° C./hour to −50° C. where the vials were frozen for 2 hours. The temperature of the shelves was then ramped at 40° C. per hour to −25° C. and held for 2 hours to crystallize the glycine in the formulation. A vacuum of 50 μm was then initiated, and primary drying was accomplished over 32 hours. After primary drying was complete, the shelf temperature was ramped at 25° C./hour to 40° C. for 8 hours. The temperature was then reduced to 4° C. and the vials were stoppered and capped.
FGF-2 stability was examined in both liquid and lyophilized (freeze-dried) formulations using RP-HPLC. As in the previous study, liquid formulations were stored at 4° C., 17° C., and 30° C.
Lyophilized formulations were stored at 40° C. and 50° C. […]
Lyophilized formulations were stored for 12 months at 4° C., 25° C. and 30° C. Stability was monitored with a number of stability indicating assays. […]

Compound	protection of FGF-2 from oxidation [1]	degradation (RP-HPLC main peak) [2]
O[C@H](CS)[C@H](O)CS (racemic) [DTT, dithiothreitol]	protects FGF-2 from oxidation in a concentration-dependent manner	–
rhFGF-2: recombinant human FGF-2 having the sequence set forth in SEQ ID NO:1	–	little (if any) detectable degradation
